This is an account of results in PubChem BioAssay (NCI).

Test in all cases: NCI-60 cell line screen, 48 h
Test [1] concerns 786-0 renal.
Test [2] relates to ACHN renal.
Test [3] deals with EKVX NSCLC.
Test [4] relates to HL-60(TB) leukemia.
Test [5] concerns HOP-62 NSCLC.
The test system of test [6] is MCF7 breast.
In test [7] the test system is OVCAR-4 ovarian.
Test [8] deals with OVCAR-5 ovarian.
Test [9] relates to PC-3 prostate.
Test [10] relates to SK-OV-3 ovarian.
The subject of test [11] is UO-31 renal.

Structures are written as SMILES. Several values for one entry are separate records, joined by “and”; a condition that tells them apart may be missing. Equal values may be shown once.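 Compound exposure: 48 hours, 5 concentrations, 96-well plates. GI50: concentration for 50% inhibition of growth. TGI: total growth inhibition.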

Turning to `CCOC(=O)C1=CN(Cc2ccccc2)C2ON=C(c3ccc(Cl)cc3)C2C1` (stereo not drawn), the TGI is > 69.5 µM in [1]; > 65.2 µM in test [2]; > 65.1 µM in [3]; > 47.1 µM in test [4]; > 67.7 µM in [5]; > 64.6 µM in test [6]. The TGI in test [7] was > 77.8 µM; in [8], > 68.7 µM; in [9], > 53.5 µM; in test [10], > 85.9 µM; in [11] it was 52.5 µM.

As to `C/C(=N\Nc1nc2ccccc2[nH]1)c1ccc2ccccc2n1`, the TGI in test [1] stood at 10.7 µM; in test [2], 24.2 µM; in test [3], 5.97 µM; in test [4], 5.04 µM; in test [5], 8.12 µM; in [6], 13.8 µM. For the same compound, the TGI in [7] amounted to 10.8 µM; in test [8], 10 µM; in [9] it was 5.2 µM; in test [10] it was 38.4 µM; in test [11] it was 5.1 µM.

Turning to `N#C[C@H](c1nc2ccccc2[nH]1)c1nc2ccccc2nc1Cl`, the TGI in [1] is > 100 µM; in test [2], > 46 µM; in [3], 30 µM; in test [4], 3.12 µM; in test [5], > 31.1 µM; in [6], > 100 µM. For the same compound, the TGI in test [7] was > 53.9 µM; in [8], > 66.2 µM; in test [9], > 52.1 µM; in test [10], > 100 µM; in test [11], > 76.7 µM.

Regarding `CNC(=S)c1nnsc1N`, the TGI in test [1] is > 100 µM; in test [2] it was > 100 µM; in [3] it was > 100 µM; in test [4], 0.0686 µM; in [5], > 100 µM; in test [6], > 100 µM. Besides, the TGI in test [7], in [8], in [9], in test [10] and in test [11] was > 100 µM in each case.

In the case of `COc1ccc(/C=C2/C(=O)C(c3ccccc3)N(c3ccccc3)C2=O)cc1OC` (stereo not drawn), the TGI in [1], in [2], in test [3], in test [4], in [5] and in [6] was > 10 µM each time. Further, the TGI in test [7], in [8], in [9], in test [10] and in test [11] was > 10 µM each time.

`[B]C(=O)NC(CC(C)C)C(=O)NC1c2ccsc2C(=O)C1O` (stereo not drawn) (tested in a mixture with another compound): the TGI in test [1], in test [2], in test [3], in test [4], in test [5] and in [6] was > 100 µM in each case. Also, the TGI in test [7], in test [8], in test [9], in test [10] and in test [11] was > 100 µM each time.

On to `COC(=O)/C=C/c1cc(OC)c2c(c1)C(C(=O)OC)C(c1ccc(O)c(OC)c1)O2` (stereo not drawn), for which the TGI in test [1] was > 100 µM and > 49.7 µM and 36.3 µM; in [2], > 100 µM; in test [3], > 100 µM and 57.6 µM; in test [5] it was > 100 µM; in test [6] it was > 100 µM and > 69.5 µM and 42.9 µM; in test [7], > 100 µM. In addition, the TGI is > 100 µM in [8]; > 100 µM in [9]; > 100 µM in test [10]; > 43.7 µM and 45.1 µM and 77.2 µM in test [11]. Also, the GI50 in test [2] was > 26.2 µM and 15.9 µM and 7.59 µM; in [3], > 29.4 µM and 18.5 µM and 3.45 µM; in [4] it was 1.14 µM and 1.81 µM and 0.325 µM; in [5], 12 µM and 5.12 µM and 7.2 µM; in [6], 1.9 µM and 2.05 µM and 0.69 µM; in test [7] it was 7.9 µM and 7.77 µM and 18 µM. For the same compound, the GI50 in [8] is 48.8 µM and 55.2 µM and 22.3 µM.

As to `CC(C)(C)OC(=O)/C=C/[C@@H](CCC(=O)/C=C/[C@H](/C=C\CCCC(=O)O)NC1(c2ccccc2)c2ccccc2-c2ccccc21)O[Si](C)(C)C(C)(C)C`, the TGI in [1] came out at 33.3 µM; in test [2] it was 36.3 µM; in test [3], 45.9 µM; in test [4], 86.1 µM; in [5] it was 36.5 µM; in [6] it was 38.7 µM. Further, the TGI was 53.9 µM in test [7]; 43.6 µM in test [8]; 36.2 µM in [9]; > 100 µM in test [10]; 29.8 µM in [11].

As for `O=C1CN2CCN(CC2)CC(=O)Nc2ccc(cc2)S(=O)(=O)c2ccc(cc2)NC(=O)CN2CCN(CC2)CC(=O)Nc2ccc(cc2)S(=O)(=O)c2ccc(cc2)N1`, the TGI is > 100 µM in [1]; > 100 µM in [2]; > 100 µM in [3]; > 100 µM in [4]; > 93.6 µM in test [5]; > 100 µM in [6]. For the same compound, the TGI is > 100 µM in test [7]; 67.7 µM in test [8]; > 100 µM in test [9]; > 100 µM in test [10]; > 100 µM in test [11].

For the compound `COc1ccc(/C=C/C(=O)N[C@@H]2C(=O)N3[C@@H]2SC(C)(C)[C@@H]3C(=O)O)cc1OC`, the TGI in test [1], in [2], in test [3], in test [4], in [5] and in test [6] was > 100 µM each time. Besides, the TGI in test [7], in [8], in test [9], in test [10] and in test [11] was > 100 µM in each case.

As to `O=c1oc2ccc([N+](=O)[O-])cc2cc1-c1csc(-c2ccccc2)n1`, the TGI in [1], in [2], in test [3], in test [4], in test [5] and in test [6] was > 100 µM in each case. Besides, the TGI in [7], in [8], in [9], in test [10] and in test [11] was > 100 µM throughout.

Turning to `CCOc1ccnc2c(OC)c(C)c3nc4ccccc4nc3c12`, the TGI in test [1], in [2], in [3], in test [4], in test [5] and in [6] was > 100 µM in each case. In addition, the TGI in test [7], in [8], in test [9], in test [10] and in test [11] was > 100 µM in each case.
